Measurements from US10688099B2, “Methods for modulating the amount of RNA transcripts” (PTC Therapeutics, Inc., priority 2013, dated 2020).

System: RNA isoforms in PNN 1-46 SMA type I patient-derived fibroblasts
Test: RNA Abundance Modulation (RNA isoform abundance, iFPM, HiSeq RNA sequencing)
Format: cell-based, human
Details: 3 μM
Description: Cells from a cell line of interest are cultured in conditions sufficient to yield the number of cells capable of generating enough RNA for subsequent sequencing steps. Cells from the tested cell line are contacted with a compound described herein.
To culture said cells, they are seeded, at appropriate concentrations in a volume of media in a cell culture container and incubated for 4, 5, 6, 7, 8, 9, 10, or more hours. A concentrated solution of compound in a vehicle (e.g., DMSO) is then added in sufficient volume to result in the intended final concentration of the compound, for example 100 nM, 500 nM, 1 μM, 5 μM, 10 μM, 15 μM, 20 μM, or more. The cells may also be treated with vehicle alone, as a control. A number of replicates of each concentration or control may be made (e.g., 2 replicates). The cells are then incubated at a constant temperature appropriate for cell culture of the particular cell line (e.g., 37° C.) for 6, 12, 18, 24, 48, or more hours. After incubation, the growth medium is removed and the cells are washed with the appropriate buffer (e.g., PBS). Cells are then removed from adherence to the cell culture container by treatment with a solution containing trypsin, and the trypsin subsequently quenched with the appropriate volume of buffer (e.g., DMEM-FBS). The cells are then pelleted with gentle centrifugation (e.g., ≤90×g centrifugal force) and resuspended in a buffer to lyse the cells for extraction of RNA. The cell lysates may then be frozen (e.g., at −80° C.) or, alternately, may immediately be used in a procedure to purify the RNA (e.g. by use of the RNEASY PLUS® minikit). The RNA from cell lysates is eluted in the appropriate volume of buffer (e.g., RNEASE-FREE H2O®). The resulting purified RNA may then be sequenced (e.g., using RNASeq) or analyzed using a human exon array (e.g., by GENECHIP® human exon array) to determine changes in the RNA levels in those cells treated with compound compared to those cells treated only with DMSO. The purified RNA may also be quantified by other methods known in the art.
Using the RNA data obtained from sequencing, exon array, or other methods, a statistical analysis can reveal changes in the RNA levels of compound-treated compared with control. For example, t-test p-values may be calculated for the data obtained through sequencing and exon array methods in order to compare compound-treated cells to those treated with the DMSO control. […] Analysis of the sequencing and exon array data may then also yield predictions about the cause of the aberrant amount of an RNA transcript in the cells (e.g., perturbation of RNA splicing, RNA transcription, or RNA stability). These predictions may be further confirmed by methods known in the art. For example, RT-PCR and RT-qPCR may be used to confirm the change in amount of RNA transcripts for one or more particular transcripts of interest.
Following the methods described above in Example 1, PNN 1-46 SMA type I patient-derived fibroblasts were treated with 300 nM or 3 μM Compounds 774 and 808 in 0.5% DMSO.
700,000 cells were seeded in 10 mL of medium (DMEM plus 10% FBS) in a T-75 flask. Cells were allowed to attach for at least 4 hrs, after which 50 μL of a 200× compound solution (100% DMSO) was added to each well, and the plate was incubated at 37° C. for 24 hrs.
At the end of the incubation period, the supernatant was removed and the cells where washed with PBS. TrypLE (Invitrogen) express solution was added (e.g. 1.5 mL per one T75 flask). The flasks were incubated for 3 to 5 min at 37° C. The trypsin was then quenched, e.g., by adding 10 mL DMEM-FBS.
Next, the cells were pelleted using gentle centrifugation without exceeding 90×g centrifugal force. The supernatant was removed and the cell pellet was re-suspended in 600 μL RLT buffer (the RLT buffer was supplemented with beta-mercaptoethanol according to the RNeasy protocol manual) by pipetting up and down until the pellet was completely dissolved […]

## CCc1nc(C)cn2nc(-c3cc(=O)n4cc(C5CCN(C)CC5)cc(C)c4n3)cc12 [Compound 774]
TRAPPC12 AK094181
  L2FC (x + 1): 0.288
  L2abs (Cpd-DMSO): 2.20
  abs (Cpd-DMSO): 5 iFPM
  amp FC (x + 1): 1.22
  ave Cpd: 24 iFPM
TRAPPC12 AK098327
  FC (x + 1): 0.0066
  L2FC (x + 1): −7.244
  L2abs (Cpd-DMSO): 7.23
  abs (Cpd-DMSO): 151 iFPM
  amp FC (x + 1): 151.58
  ave Cpd: 0 iFPM
TRAPPC12 NM_016030
  FC (x + 1): 1.2575
  L2FC (x + 1): 0.331
  L2abs (Cpd-DMSO): 7.32
  abs (Cpd-DMSO): 160 iFPM
  amp FC (x + 1): 1.26
  ave Cpd: 781 iFPM
TRIM2 BC025417
  FC (x + 1): 0.7534
  L2FC (x + 1): −0.408
  L2abs (Cpd-DMSO): 0.61
  abs (Cpd-DMSO): 2 iFPM
  amp FC (x + 1): 1.33
  ave Cpd: 4 iFPM
TRIM2 NM_015271
  FC (x + 1): 1.1211
  L2FC (x + 1): 0.165
  L2abs (Cpd-DMSO): 7.65
  abs (Cpd-DMSO): 201 iFPM
  amp FC (x + 1): 1.12
  ave Cpd: 1858 iFPM
TRIM2 NM_001130067
  FC (x + 1): 0.0184
  L2FC (x + 1): −5.763
  L2abs (Cpd-DMSO): 5.74
  abs (Cpd-DMSO): 53 iFPM
  amp FC (x + 1): 54.29
  ave Cpd: 0 iFPM
TRIM65 NM_173547
  FC (x + 1): 1.6613
  L2FC (x + 1): 0.732
  L2abs (Cpd-DMSO): 7.49
  abs (Cpd-DMSO): 179 iFPM
  amp FC (x + 1): 1.66
  ave Cpd: 449 iFPM
TRIM65 NM_001256124
  FC (x + 1): 0.0055
  L2FC (x + 1): −7.514
  L2abs (Cpd-DMSO): 7.51
  abs (Cpd-DMSO): 182 iFPM
  amp FC (x + 1): 182.75
  ave Cpd: 0 iFPM
TSPAN2 GU971730
  FC (x + 1): 0.3567
  L2FC (x + 1): −1.487
  L2abs (Cpd-DMSO): 4.19
  abs (Cpd-DMSO): 18 iFPM
  amp FC (x + 1): 2.80
  ave Cpd: 9 iFPM
TSPAN2 NM_005725
  FC (x + 1): 0.3229
  L2FC (x + 1): −1.631
  L2abs (Cpd-DMSO): 8.17
  abs (Cpd-DMSO): 288 iFPM
  amp FC (x + 1): 3.10
  ave Cpd: 136 iFPM
U2SURP AK057679
  FC (x + 1): 1.1346
  L2FC (x + 1): 0.182
  L2abs (Cpd-DMSO): 4.73
  abs (Cpd-DMSO): 27 iFPM
  amp FC (x + 1): 1.13
  ave Cpd: 223 iFPM
U2SURP AK296440
  FC (x + 1): 0.9747
  L2FC (x + 1): −0.037
  L2abs (Cpd-DMSO): 2.77
  abs (Cpd-DMSO): 7 iFPM
  amp FC (x + 1): 1.03
  ave Cpd: 261 iFPM
U2SURP BC006474
  FC (x + 1): 0.9155
  L2FC (x + 1): −0.127
  L2abs (Cpd-DMSO): 6.85
  abs (Cpd-DMSO): 115 iFPM
